# Measurements as given in ChEMBL document CHEMBL1152336, “Characterization of the tautomycetin biosynthetic gene cluster from Streptomyces griseochromogenes provides new insight into dialkylmaleic anhydride biosynthesis” (J Nat Prod, 2009).
# Experiments:
# [1] = Selectivity ratio of IC50 for PP2A over IC50 for PP1
# [2] = Inhibition of PP1
# [3] = Inhibition of PP2A
SMILES,Ratio IC50 [1],IC50 [2] [nM],IC50 [3] [nM]
C=C/C(=C/C(=O)C[C@H](C)C[C@@H](C)CC[C@H](O)[C@H](C)C(=O)C[C@@H](O)[C@H](C)[C@@H](C)OC(=O)C[C@@H](C)C1=C(C)C(=O)OC1=O)CC [TAUTOMYCETIN],40,,
CO[C@H]([C@H](O)CC(=O)[C@@H](C)[C@@H](O)CC[C@@H](C)[C@@H]1O[C@]2(CC[C@@H](C)[C@H](CC[C@H](C)C(C)=O)O2)CC[C@@H]1C)[C@H](OC(=O)C[C@@H](O)C1=C(C)C(=O)OC1=O)C(C)C [TAUTOMYCIN],,22,22
